The source made the active and inactive calls. The rule behind the calls is not given here.
Tested on: S. Typhi WT vs phoP-, polymyxin IC50 shift, OD600 24 h
Assay: polymyxin IC50 shift in S. Typhi, Salmonella typhi, set 2 (AID 2811)
Details: stronger effect = lower value; for polymyxin IC50 shift difference (WT - phoP-) / polymyxin IC50 shift: at 150 µM
[1] = measured here: phoP- strain shift
[2] = measured here: wild-type strain shift

Compound | polymyxin IC50 (WT polymyxin IC50 at 150 uM) | polymyxin IC50 shift difference (WT - phoP-) | polymyxin IC50 shift [1] | polymyxin IC50 shift [2] | polymyxin IC50 (phoP- polymyxin IC50 at 150 uM)
COc1ccc(CNC(=S)Nc2ccncc2)cc1 | 5.14 µM | -2.86 (inactive) | -0.186 | -3.04 | 4.55 µM
O=C(Nc1ccc(Br)cc1)N1CCCN(Cc2ccccc2F)C1 | 7.08 µM | -5.49 (inactive) | 1.55 | -3.93 | 2.62 µM
COc1cccc(C2Sc3ccccc3NC3=C2C(=O)c2ccccc23)c1 (centres undefined) | 2.58 µM | -3.66 (inactive) | 4.99 | 1.33 | 11.2 µM
CCn1cc(C(=O)O)c(=O)c2cc(F)c(N3CCN(C(=S)Nc4ccccc4C(F)(F)F)CC3)cc21 | 2.53 µM | -9.73 (inactive) | 9.16 | -0.568 | 2.76 µM
O=C1C2=C(Nc3ccccc3SC2c2ccsc2)c2ccccc21 (centres undefined) | 21.5 µM | -25.9 (inactive) | 6.12 | -19.7 | 
O=C1C2=C(Nc3ccccc3SC2c2ccc(I)cc2)c2ccccc21 (centres undefined) | 25.8 µM | -8.99 (inactive) | 1.81 | -7.18 | 0.04 µM
